Experimental data published in ChEMBL document CHEMBL4673288, “Structure-activity relationship of novel acridone derivatives as antiproliferative agents” (Bioorg Med Chem, 2021).
pIC50: −log10 of the molar value. Active and inactive are the calls of the source. The rule behind the calls is not given here.

How the values were obtained:
[1] = target: DNA topoisomerase 2-alpha (Homo sapiens) (UniProt P11388); test: Inhibition of recombinant human topoisomerase 2 alpha-mediated relaxation of supercoiled pBR322 DNA at 200 uM incubated for 30 mins by ethidium bromide staining based agarose gel electrophoresis method
HCT-116 = test: Antiproliferative activity against human HCT-116 cells assessed as reduction in cell viability incubated for 72 hrs by SRB assay; assay type: functional, cell-based; conditions: HCT-116, 72 h
SW480 = test: Antiproliferative activity against human SW480 cells assessed as reduction in cell viability incubated for 72 hrs by SRB assay; assay type: functional, cell-based; conditions: SW480, 72 h
HeLa = test: Antiproliferative activity against human HeLa cells assessed as reduction in cell viability incubated for 72 hrs by SRB assay; assay type: functional, cell-based
K562 = test: Antiproliferative activity against human K562 cells assessed as reduction in cell viability incubated for 48 hrs by MTT assay; assay type: functional, cell-based; conditions: K562, 48 h
HepG2 = test: Antiproliferative activity against human HepG2 cells assessed as reduction in cell viability incubated for 48 hrs by MTT assay; assay type: functional, cell-based; conditions: HepG2, 48 h

Sequence of DNA topoisomerase 2-alpha (Homo sapiens) (P11388 whole entry): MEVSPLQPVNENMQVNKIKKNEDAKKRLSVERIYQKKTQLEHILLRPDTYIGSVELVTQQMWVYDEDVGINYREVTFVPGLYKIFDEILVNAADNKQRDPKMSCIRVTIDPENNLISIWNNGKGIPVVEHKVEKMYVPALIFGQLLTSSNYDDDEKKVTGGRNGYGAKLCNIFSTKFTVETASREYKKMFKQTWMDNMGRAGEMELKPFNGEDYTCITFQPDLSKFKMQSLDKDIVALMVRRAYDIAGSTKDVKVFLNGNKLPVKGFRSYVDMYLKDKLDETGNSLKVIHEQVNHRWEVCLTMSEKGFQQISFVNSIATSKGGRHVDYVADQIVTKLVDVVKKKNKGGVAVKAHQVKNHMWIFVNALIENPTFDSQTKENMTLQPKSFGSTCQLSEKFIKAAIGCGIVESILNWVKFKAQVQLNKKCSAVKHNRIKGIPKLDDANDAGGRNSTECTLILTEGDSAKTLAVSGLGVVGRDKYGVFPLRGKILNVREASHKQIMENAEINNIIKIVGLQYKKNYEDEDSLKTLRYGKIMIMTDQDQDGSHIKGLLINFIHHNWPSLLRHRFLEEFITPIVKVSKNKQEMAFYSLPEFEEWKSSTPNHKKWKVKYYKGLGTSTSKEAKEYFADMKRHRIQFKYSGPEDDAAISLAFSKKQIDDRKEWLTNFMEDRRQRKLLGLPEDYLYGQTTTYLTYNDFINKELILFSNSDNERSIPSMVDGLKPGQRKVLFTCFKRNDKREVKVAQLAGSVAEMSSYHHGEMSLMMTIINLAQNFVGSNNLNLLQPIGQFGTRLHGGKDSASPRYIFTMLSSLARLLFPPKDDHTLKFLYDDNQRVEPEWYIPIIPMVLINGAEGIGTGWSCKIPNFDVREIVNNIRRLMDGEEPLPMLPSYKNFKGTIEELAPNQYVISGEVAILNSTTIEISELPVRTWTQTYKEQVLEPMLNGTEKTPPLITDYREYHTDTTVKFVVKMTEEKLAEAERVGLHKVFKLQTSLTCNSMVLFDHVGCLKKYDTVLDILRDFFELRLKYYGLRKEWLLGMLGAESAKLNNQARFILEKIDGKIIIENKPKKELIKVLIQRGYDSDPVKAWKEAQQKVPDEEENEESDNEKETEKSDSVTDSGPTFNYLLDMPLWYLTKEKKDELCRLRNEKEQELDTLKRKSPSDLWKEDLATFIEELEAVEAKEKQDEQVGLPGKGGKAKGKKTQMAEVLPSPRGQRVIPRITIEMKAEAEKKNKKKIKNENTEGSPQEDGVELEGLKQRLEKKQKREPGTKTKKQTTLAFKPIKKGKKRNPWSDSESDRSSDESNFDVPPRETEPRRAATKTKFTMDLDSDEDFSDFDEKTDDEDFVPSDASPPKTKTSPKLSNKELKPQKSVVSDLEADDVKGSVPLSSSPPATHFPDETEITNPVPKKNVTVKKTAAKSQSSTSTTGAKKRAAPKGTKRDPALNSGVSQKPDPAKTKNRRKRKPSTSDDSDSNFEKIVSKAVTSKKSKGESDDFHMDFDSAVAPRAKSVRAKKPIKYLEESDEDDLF

SMILES	inhibition [1]	pIC50 (HCT-116)	pIC50 (SW480)	pIC50 (HeLa)	pIC50 (K562)	pIC50 (HepG2)
O=c1c2cc(O)ccc2[nH]c2c([N+](=O)[O-])ccc(NCc3ccco3)c12	Active	< 4.70	4.81	4.91		
O=c1c2cc(O)ccc2[nH]c2c([N+](=O)[O-])ccc(Nc3ccc(CN4CCCCC4)cc3)c12	Active	5.60	5.64	5.96		
CCCCCCCCCCCOc1ccc(OCc2ccc(C(=O)N[C@@H](CCC(=O)O)C(=O)O)cc2)c2c1C(=O)c1ccccc1C2=O					6.11	
CN1CCN(c2ccc(Nc3ccc([N+](=O)[O-])c4[nH]c5ccc(O)cc5c(=O)c34)cc2)CC1	Active	5.82	5.96	5.32		
COc1ccc2[nH]c3c([N+](=O)[O-])ccc(Nc4ccc(O)cc4)c3c(=O)c2c1	Active	4.93	4.77	5.12		
O=c1c2cc(O)ccc2[nH]c2c([N+](=O)[O-])ccc(NCc3ccc(F)cc3)c12		< 4.70	< 4.70	< 4.70		
CCCCCCCCCCCCOc1ccc(OCCCCNCCCCNCCCNCCC)c2c1C(=O)c1ccccc1C2=O						5.06
O=c1c2cc(F)ccc2[nH]c2c([N+](=O)[O-])ccc(NCc3ccc(O)cc3)c12		< 4.70	< 4.70	4.98		
O=c1c2cc(O)ccc2[nH]c2c([N+](=O)[O-])ccc(NCc3ccsc3)c12	Active	< 4.70	< 4.70	< 4.70		
O=c1c2cc(O)ccc2[nH]c2c([N+](=O)[O-])ccc(NCc3ccc(O)cc3)c12		< 4.70	< 4.70	< 4.70		
O=c1c2cc(O)ccc2[nH]c2c([N+](=O)[O-])ccc(NCc3cccnc3)c12	inactive	< 4.70	< 4.70	< 4.70		
O=c1c2cc(O)ccc2[nH]c2c([N+](=O)[O-])ccc(Nc3ccc(N4CCOCC4)cc3)c12		5.23	5.62	5.19		
O=c1c2cc(O)ccc2[nH]c2c([N+](=O)[O-])ccc(NCc3cccs3)c12	inactive	< 4.70	< 4.70	< 4.70		
COc1ccc2[nH]c3c([N+](=O)[O-])ccc(Nc4ccc(CN5CCCCC5)cc4)c3c(=O)c2c1	Active	5.24	5.06	5.77		
COc1ccc2[nH]c3c([N+](=O)[O-])ccc(NCCCN4CCN(C)CC4)c3c(=O)c2c1	Active	6.00	5.70	6.05		
O=c1c2cc(O)ccc2[nH]c2c([N+](=O)[O-])ccc(NCCc3cccc(C(F)(F)F)c3)c12		< 4.70	4.93	5.12		
CCCCCCCCCCCOc1ccc(OCc2ccc(C(=O)N[C@@H](Cc3ccccc3)C(=O)O)cc2)c2c1C(=O)c1ccccc1C2=O					5.74	
COc1cc(Nc2ccc([N+](=O)[O-])c3[nH]c4ccc(O)cc4c(=O)c23)cc(OC)c1	Active	< 4.70	< 4.70	< 4.70		
COc1ccc2[nH]c3c([N+](=O)[O-])ccc(NCc4cccs4)c3c(=O)c2c1		< 4.70	< 4.70	< 4.70		
CN1CCN(Cc2ccc(Nc3ccc([N+](=O)[O-])c4[nH]c5ccc(O)cc5c(=O)c34)cc2)CC1	Active	6.40	6.52	6.22		
O=c1c2cc(O)ccc2[nH]c2c([N+](=O)[O-])ccc(Nc3ccc(Cn4cncn4)cc3)c12	Active	5.41	5.64	5.12		
CCN(CC)CCNc1ccc2ncn3c4ccc(O)cc4c(=O)c1c23 [C-1311]		6.52	6.32			
O=C1c2c(O)ccc(O)c2C(=O)c2c(NCCNCCO)ccc(NCCNCCO)c21 [MITOXANTRONE]					5.63	4.81
COc1ccc2[nH]c3c([N+](=O)[O-])ccc(Nc4ccc(N5CCN(C)CC5)cc4)c3c(=O)c2c1		< 4.70	< 4.70	< 4.70		
CN1CCN(CCNc2ccc([N+](=O)[O-])c3[nH]c4ccc(O)cc4c(=O)c23)CC1	Active	6.15	5.92	5.92		
O=c1c2cc(O)ccc2[nH]c2c([N+](=O)[O-])ccc(Nc3ccc(O)cc3)c12	Active	< 4.70	< 4.70	< 4.70		
COc1ccc(Nc2ccc([N+](=O)[O-])c3[nH]c4ccc(O)cc4c(=O)c23)cc1	Active	< 4.70	< 4.70	< 4.70		
COc1cc([C@@H]2c3cc4c(cc3[C@@H](O[C@@H]3O[C@@H]5CO[C@@H](C)O[C@H]5[C@H](O)[C@H]3O)[C@H]3COC(=O)[C@H]23)OCO4)cc(OC)c1O [ETOPOSIDE]	Active	5.77	6.22		4.97	
COc1cccc(Nc2ccc([N+](=O)[O-])c3[nH]c4ccc(O)cc4c(=O)c23)c1	Active	< 4.70	< 4.70	< 4.70		
COc1ccc2[nH]c3c([N+](=O)[O-])ccc(Nc4ccc(N5CCOCC5)cc4)c3c(=O)c2c1		< 4.70	< 4.70	< 4.70		

Now from value to compound, other results behind:

inhibition [1]	pIC50 (HCT-116)	pIC50 (SW480)	pIC50 (HeLa)	pIC50 (K562)	SMILES	pIC50 (HepG2)
inactive	< 4.70	< 4.70	< 4.70		COc1ccc(Nc2ccc([N+](=O)[O-])c3[nH]c4ccc(O)cc4c(=O)c23)cc1OC	
	< 4.30	< 4.30	< 4.30		COc1ccc2[nH]c3c(N)ccc(NCCc4ccc(O)c(O)c4)c3c(=O)c2c1	
	< 4.30	< 4.30	4.76		COc1ccc(CCNc2ccc(N)c3[nH]c4ccc(O)cc4c(=O)c23)cc1OC	
	< 4.70	4.91	4.91		COc1ccc2[nH]c3c([N+](=O)[O-])ccc(NCCc4cccc(C(F)(F)F)c4)c3c(=O)c2c1	
	< 4.70	< 4.70	< 4.70		COc1ccc2[nH]c3c(N)ccc(NCCc4cccc(C(F)(F)F)c4)c3c(=O)c2c1	
	< 4.70	5.06	5.35		COc1ccc(CCNc2ccc([N+](=O)[O-])c3[nH]c4ccc(F)cc4c(=O)c23)cc1OC	
	< 4.70	< 4.70	< 4.70		COc1ccc2[nH]c3c([N+](=O)[O-])ccc(NCc4cccnc4)c3c(=O)c2c1	
	< 4.30	< 4.70	< 4.70		Nc1ccc(NCCc2cccc(C(F)(F)F)c2)c2c(=O)c3cc(O)ccc3[nH]c12	
	5.06	4.81	5.06		COc1ccc2[nH]c3c(N)ccc(NCCc4ccc(OC)c(OC)c4)c3c(=O)c2c1	
	5.34	5.07	5.21		COc1ccc2[nH]c3c(N)ccc(Nc4ccc(OC)c(OC)c4)c3c(=O)c2c1	
	< 4.70	< 4.70	< 4.70		COc1ccc2[nH]c3c([N+](=O)[O-])ccc(NCc4ccco4)c3c(=O)c2c1	
	< 4.70	5.19	< 4.70		COc1ccc2[nH]c3c([N+](=O)[O-])ccc(NCCc4ccc(O)c(O)c4)c3c(=O)c2c1	
	< 4.70	4.71	4.89		COc1ccc2[nH]c3c([N+](=O)[O-])ccc(NCCc4ccc(OC)c(OC)c4)c3c(=O)c2c1	
	< 4.70	< 4.70	< 4.70		COc1ccc(CCNc2ccc([N+](=O)[O-])c3[nH]c4ccc(O)cc4c(=O)c23)cc1OC	
	4.76	4.95	4.91		COc1ccc(CCNc2ccc(N)c3[nH]c4ccc(F)cc4c(=O)c23)cc1OC	
	4.91	< 4.70	< 4.70		COc1ccc2[nH]c3c([N+](=O)[O-])ccc(NCc4ccc(O)cc4)c3c(=O)c2c1	
Active	< 4.70	4.80	4.77		COc1ccc2[nH]c3c(N)ccc(Nc4ccc(-n5cncn5)cc4)c3c(=O)c2c1	
	4.75	5.42	4.76		COc1ccc2[nH]c3c(N)ccc(Nc4ccc(N5CCOCC5)cc4)c3c(=O)c2c1	
	< 4.90	< 4.60	< 4.90		COc1ccc(Nc2ccc(N)c3[nH]c4ccc(OC)cc4c(=O)c23)cc1	
